Values joined by “and” are separate entries in the source; they are usually repeats but may differ in a detail not shown here. Identical values can stand only once. Active and inactive are the calls of the source. No rule for the calls is given here.

This test deals with Alkaline phosphatase, tissue-nonspecific isozyme (Homo sapiens) (UniProt P05186). Briefly: inhibition of tissue-nonspecific alkaline phosphatase – biochemical, selectivity assay for human IAP inhibitor project, SAR follow-up (AID 493141). The note with it: isolated enzyme, CDP-Star luminescence, 30 min.
Chain of Alkaline phosphatase, tissue-nonspecific isozyme (Homo sapiens) (P05186 whole entry, looked up): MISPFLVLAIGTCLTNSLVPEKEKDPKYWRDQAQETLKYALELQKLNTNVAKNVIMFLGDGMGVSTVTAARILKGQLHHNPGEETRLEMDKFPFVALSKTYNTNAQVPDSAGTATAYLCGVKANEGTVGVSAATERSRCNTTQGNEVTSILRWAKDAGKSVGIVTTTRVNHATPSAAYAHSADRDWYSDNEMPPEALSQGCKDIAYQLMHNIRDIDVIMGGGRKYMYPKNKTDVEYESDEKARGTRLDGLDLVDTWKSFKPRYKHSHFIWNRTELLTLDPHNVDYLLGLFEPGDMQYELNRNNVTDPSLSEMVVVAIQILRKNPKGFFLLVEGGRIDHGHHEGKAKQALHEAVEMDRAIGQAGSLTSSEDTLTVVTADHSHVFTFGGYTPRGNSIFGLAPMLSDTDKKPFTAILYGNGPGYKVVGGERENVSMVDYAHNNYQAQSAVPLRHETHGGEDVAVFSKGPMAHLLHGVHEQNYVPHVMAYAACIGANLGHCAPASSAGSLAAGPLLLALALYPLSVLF
`CN(C)S(=O)(=O)c1cccc(NC(=S)NN=Cc2ccc(O)c(O)c2O)c1`: the IC50 is > 100 µM (inactive). Regarding `COC(=O)/C=C1/S/C(=N/N=Cc2ccc(N(C)C)cc2)NC1=O`, the IC50 is > 100 µM (inactive). In the case of `O=S(=O)(Nc1ncccn1)c1ccc(NC(=S)NCCC(c2ccccc2)c2ccccc2)cc1` it was > 100 µM (inactive); in that of `Cc1ccc(Nc2nc(-c3ccc(O)cc3O)cs2)cc1`, > 100 µM (inactive); in that of `COC(=O)/C=C1\S/C(=N/N=C/CC(=O)OC)NC1=O`, > 100 µM (inactive). With `COc1cc(/C=N/N=C2\NC(=O)C(CC(=O)O)S2)cc(OC)c1OC` (stereo not given), the IC50 was > 100 µM (inactive). With `COc1cc([N+](=O)[O-])ccc1NC(=S)NNC(=O)c1ccc2c(c1)OCO2` the figure was > 100 µM (inactive).

Take `COC(=O)C/C=N/N=C1\NC(=O)/C(=C/C(=O)O)S1`: the IC50 is > 100 µM (inactive). In the case of `CCOc1ccc(Nc2nc(-c3ccc(O)c(O)c3)cs2)cc1` it was > 100 µM (inactive). In the case of `O=S(=O)(c1ccc(NC(=S)N/N=C/c2ccc(O)c(O)c2O)cc1)N1CCOCC1` it was > 100 µM (inactive); in that of `CCOc1cc(C=NNC(=S)NC2CCCCC2)ccc1O`, > 100 µM (inactive). For the compound `COc1ccc(NC(=S)NCCC(c2ccccc2)c2ccccc2)cc1`, the IC50 is > 100 µM (inactive).

For `COC(=O)/C=C1/S/C(=N/NC(=O)c2ccc(OC)cc2)NC1=O`, the IC50 was > 100 µM (inactive). Take `Oc1ccc(Nc2nc(-c3ccc(O)c(O)c3)cs2)cc1`: the IC50 was 17.8 µM. With `Cc1ccc2nc(NNC(=O)c3ccc4c(c3)OCCO4)sc2c1` the figure was > 100 µM (inactive); with `Cc1cccc(C)c1NC(=S)N/N=C/c1ccc(O)c(O)c1O`, > 100 µM (inactive); with `CCc1ccccc1Nc1nc(-c2ccc(O)c(O)c2)cs1`, 30.5 µM and 21.4 µM. For `Cc1cccc(Nc2nc(-c3ccc(O)c(C(N)=O)c3)cs2)c1`, the IC50 was > 100 µM (inactive). For `COc1cc(C=NNC(=S)Nc2cccc(S(=O)(=O)N(C)C)c2)cc(OC)c1O`, the IC50 is > 100 µM (inactive).

With `COc1ccc(Cl)cc1Nc1nc(-c2ccc(O)c(O)c2)cs1`, the IC50 was > 100 µM (inactive) and 83.7 µM. With `CCOc1cc(/C=N/N=C2\NC(=O)C(CC(=O)O)S2)ccc1O` (stereo not given) the figure was > 100 µM (inactive); with `COC(=O)/C=C1/S/C(=N/NC(=O)c2ccccc2C)NC1=O`, > 100 µM (inactive). In the case of `NS(=O)(=O)c1ccc(Nc2nc(-c3ccc(O)cc3O)cs2)cc1` it was 59.9 µM. In the case of `COc1ccc(C=NNC(=S)Nc2ccccc2[N+](=O)[O-])cc1O` it was > 100 µM (inactive); in that of `Cc1ccc(Nc2nc(-c3ccc(O)cc3O)cs2)cc1C`, > 100 µM (inactive); in that of `COc1cc(C=NNC(=S)Nc2cccc(S(=O)(=O)N(C)C)c2)ccc1O`, > 100 µM (inactive). Take `COc1ccc(-c2csc(Nc3cccc4ccccc34)n2)cc1`: the IC50 was > 100 µM (inactive). In the case of `Cc1ccc(Cl)cc1Nc1nc(-c2ccc(O)c(O)c2)cs1` it was 51.4 µM. Take `O=[N+]([O-])c1ccccc1NC(=S)NN=Cc1ccc(O)c(O)c1`: the IC50 is 42.8 µM.

Regarding `COc1ccc(-c2csc(Nc3cccc4ccccc34)n2)cc1F`, the IC50 was > 100 µM (inactive). Turning to `N#CCCn1cc(/C=N/N=C2/NC(=O)C(CC(=O)O)S2)c(-c2ccc(F)cc2)n1` (stereo not given), the IC50 was > 100 µM (inactive). Take `Cc1c(Cl)cccc1Nc1nc(-c2ccc(O)c(O)c2)cs1`: the 50% inhibitory concentration (IC50) was 41 µM and > 100 µM (inactive). With `Cn1c(=S)n(N=Cc2ccc3c(c2)OCO3)c2ccccc21`, the IC50 was > 100 µM (inactive). As for `COc1cc(/C=N/N=C2/SCC(=O)N2c2ccc(O)cc2)ccc1O`, the IC50 was > 100 µM (inactive). With `Cc1ccc(Nc2nc(-c3ccc(O)c(O)c3)cs2)cc1F` the figure was 79.4 µM; with `COc1cc(C(=O)NNC(=S)Nc2ccc(S(N)(=O)=O)cc2)cc(OC)c1OC`, > 100 µM (inactive); with `COc1ccc(/C=N/N=C2/NC(=O)C(CC(=O)O)S2)cc1OC` (stereo not given), > 100 µM (inactive).

Turning to `S=C(NCCC(c1ccccc1)c1ccccc1)Nc1ccc(Cl)cc1Cl`, the IC50 is > 100 µM (inactive). In the case of `Cc1cc(=O)oc2cc(NC(=S)NCCC(c3ccccc3)c3ccccc3)ccc12` it was > 100 µM (inactive). In the case of `Cc1cccc(Nc2nc(-c3ccc(O)c(O)c3)cs2)c1` it was 60.6 µM.

In the case of `O=[N+]([O-])c1ccc(NC(=S)NCCC(c2ccccc2)c2ccccc2)cc1`, the IC50 is > 100 µM (inactive).

As for `Cc1cc(C)cc(Nc2nc(-c3ccc(O)cc3O)cs2)c1`, the IC50 was > 100 µM (inactive). In the case of `O=[N+]([O-])c1ccccc1NC(=S)N/N=C/c1ccc(O)c(O)c1O` it was 86.1 µM. Turning to `Cc1cccc(NC(=S)NNC(=O)c2ccc3c(c2)OCO3)c1`, the IC50 is > 100 µM (inactive). In the case of `Oc1ccc(-c2csc(Nc3ccccc3)n2)c(O)c1` it was > 100 µM (inactive); in that of `Cc1ccc2sc(NNC(=O)c3ccc4c(c3)OCCO4)nc2c1C`, > 100 µM (inactive). `O=C(O)CC1S/C(=N/N=C/c2ccco2)NC1=O` (stereo not given): the IC50 is > 100 µM (inactive). In the case of `COC(=O)/C=C1/S/C(=N/NC(=O)c2ccccc2OC)NC1=O` it was > 100 µM (inactive).

As to `Cc1cccc2sc(NNC(=O)c3ccc4c(c3)OCCO4)nc12`, the IC50 is > 100 µM (inactive). `COc1cc([N+](=O)[O-])ccc1NC(=S)NCCC(c1ccccc1)c1ccccc1`: the IC50 was > 100 µM (inactive). With `Cc1ccc(C)c(Nc2nc(-c3ccc(O)cc3O)cs2)c1` the figure was > 100 µM (inactive). Take `CC(=NNC(=S)Nc1ccccc1)c1ccc2c(c1)OCO2`: the IC50 was > 100 µM (inactive). In the case of `CCN(CC)S(=O)(=O)c1ccc(-c2csc(=Nc3cccc4ccccc34)n2C)cc1` it was > 100 µM (inactive). In the case of `Cc1cccc(NC(=S)NN=Cc2ccc3c(c2)OCO3)c1` it was > 100 µM (inactive); in that of `Cc1ccc(Nc2nc(-c3ccc(O)cc3O)cs2)cc1F`, > 100 µM (inactive).

In the case of `Cc1ccc(Nc2nc(-c3ccc(O)c(O)c3)cs2)cc1`, the IC50 was > 100 µM (inactive). For the compound `NS(=O)(=O)c1ccc(Nc2nc(-c3ccc(O)c(O)c3)cs2)cc1`, the IC50 was 6.26 µM. With `FC(F)(F)c1cccc(NC(=S)NCCC(c2ccccc2)c2ccccc2)c1` the figure was > 100 µM (inactive); with `Cc1ccc(Nc2nc(-c3ccc(O)c(C(N)=O)c3)cs2)cc1`, > 100 µM (inactive); with `COC(=O)/C=C1/S/C(=N/NC(=O)c2ccccc2)NC1=O`, > 100 µM (inactive). For the compound `COc1ccc(C=Nn2c(=S)n(C)c3ccccc32)cc1OC`, the IC50 was > 100 µM (inactive). `COC(=O)/C=C1\S/C(=N/N=C/c2ccc(Cl)cc2)NC1=O`: the IC50 was > 100 µM (inactive). With `COc1cc(C=NNC(=S)Nc2cccc(C(=O)O)c2)ccc1O`, the IC50 was > 100 µM (inactive). For `O=S(=O)(c1ccc(NC(=S)N/N=C/c2ccc(O)c(O)c2)cc1)N1CCOCC1`, the IC50 was 14.1 µM. For the compound `Oc1ccc(-c2csc(Nc3cccc4ccccc34)n2)cc1O`, the IC50 was 22.5 µM and 27.9 µM. As for `COc1cc(C=NN=C2SC(CC(=O)O)C(=O)N2c2ccc(O)cc2)ccc1O` (stereo not given), the IC50 was > 100 µM (inactive).

With `CCOc1cc(C=N/N=C2/NC(=O)C(CC(=O)O)S2)ccc1OCc1ccccc1Cl` (stereo not given), the IC50 was > 100 µM (inactive).

Regarding `COc1ccc(C=NN=C2SC(CC(=O)O)C(=O)N2c2ccc(O)cc2)cc1` (stereo not given), the IC50 is > 100 µM (inactive). Regarding `COC(=O)/C=C1\SC(N=Nc2c(O)[nH]c3ccccc23)=NC1=O`, the IC50 is > 100 µM (inactive). Consider `Cc1ccc(-c2ccc(/C=N/N=C3\NC(=O)C(CC(=O)O)S3)o2)c([N+](=O)[O-])c1` (stereo not given), for which the IC50 was > 100 µM (inactive). `CC(C)(C)c1ccc(/C=N/N=C2\NC(=O)C(CC(=O)O)S2)cc1` (stereo not given): the IC50 was > 100 µM (inactive). In the case of `Oc1ccc(-c2csc(Nc3ccc(F)cc3)n2)cc1O` it was 54.8 µM; in that of `COc1ccc(/C=N/N=C2\NC(=O)C(CC(=O)O)S2)c(OC)c1` (stereo not given), > 100 µM (inactive); in that of `COc1cccc(Nc2nc(-c3ccc(O)cc3)cs2)c1`, > 100 µM (inactive). Take `COC(=O)/C=C1/S/C(=N/NC(=O)c2ccc(Cl)cc2Cl)NC1=O`: the IC50 was > 100 µM (inactive).

The IC50 is the concentration that gives 50% inhibition.
